Experimental data reported in ChEMBL document CHEMBL3784991, “Design, synthesis and evaluation of novel HIV-1 NNRTIs with dual structural conformations targeting the entrance channel of the NNRTI binding pocket” (Eur J Med Chem, 2016).
pEC50, pIC50: −log10 of the molar value. Structures can show the parent of a compound that is named as a salt.

What was measured:
[1] = tested on: Human immunodeficiency virus 2; assay: Antiviral activity against HIV2 ROD infected in human MT4 cells assessed as cell viability after 4 days by MTT assay; format: functional, organism-based; settings: Human immunodeficiency virus 2, ISOLATE ROD, MT4, 96 h
[2] = Selectivity index, ratio of CC50 for mock infected human MT4 cells to EC50 for HIV1 3B infected in human MT4 cells; format: toxicity, cell-based; settings: read-out: Ratio CC50/EC50
[3] = Cytotoxicity against mock infected human MT4 cells after 4 days by MTT assay; format: cell-based
[4] = tested on: Human immunodeficiency virus 1; assay: Antiviral activity against wild type HIV1 3B infected in human MT4 cells assessed as cell viability after 4 days by MTT assay; format: functional, organism-based; settings: Human immunodeficiency virus 1, 3B, MT4, 96 h
[5] = Selectivity index, ratio of CC50 for mock infected human MT4 cells to EC50 for HIV2 ROD infected in human MT4 cells; format: toxicity, cell-based; settings: read-out: Ratio CC50/EC50
[6] = tested on: Human immunodeficiency virus 1; assay: Antiviral activity against HIV1 RES056 harboring reverse transcriptase K103N/[…] double mutant infected in human MT4 cells assessed as cell viability after 4 days by MTT assay; format: functional, organism-based; settings: Human immunodeficiency virus 1, RES056, MT4, 96 h
[7] = Selectivity index, ratio of CC50 for mock infected human MT4 cells to EC50 for HIV1 RES056 harboring reverse transcriptase K103N/[…] double mutant infected in human MT4 cells; format: toxicity, cell-based; settings: read-out: Ratio CC50/EC50
[8] = target: Human immunodeficiency virus type 1 reverse transcriptase (Human immunodeficiency virus 1, UniProt Q72547); assay: Inhibition of wild type HIV1 Reverse transcriptase assessed as reduction of biotin deoxyuridine triphosphate incorporation into the wild type HIV1 reverse transcriptase after 1 hr by ELISA
[9] = tested on: Human immunodeficiency virus 1; assay: Potency index, ratio of nevirapine EC50 to compound EC50 for HIV1 3B infected in human MT4 cells; format: functional

Row | Compound | pEC50 [1] | selectivity ratio [2] | CC50 at 96 h [3] | pEC50 [4] | selectivity ratio [5] | pEC50 [6] | selectivity ratio [7] | pIC50 [8] | Ratio EC50 [9]
1 | Cc1cc(C#N)cc(C)c1Oc1cc(Nc2ccc(Cl)cc2)nc(Nc2ccc(C#N)cc2)n1 | < 5.48 | 4 | 3.28 µM | 6.10 | < 1 | < 5.48 | < 1 |  | 
2 | Cc1ccc(Nc2nc(Nc3cccc(C)c3)cc(Oc3c(C)cc(C#N)cc3C)n2)cc1 | < 4.76 | < 1 | 17.3 µM | < 4.76 | < 1 |  |  |  | 
3 | Cc1ccnc2c1NC(=O)c1cccnc1N2C1CC1 [NEVIRAPINE] |  |  | > 15 µM |  |  | < 4.82 |  |  | 
4 | Cc1cccc(Nc2cc(Oc3c(C)cc(C)cc3C)nc(Nc3cccc(C#N)c3)n2)c1 | < 4.59 | < 1 | 25.8 µM | < 4.59 | < 1 |  |  |  | 
5 | Cc1cc(C#N)cc(C)c1Oc1cc(Nc2ccc(Cl)cc2)nc(Nc2cccc(C#N)c2)n1 | < 5.50 | < 1 | 3.15 µM | < 5.50 | < 1 |  |  |  | 
6 | Cc1ccc(Nc2nc(Nc3cccc(C)c3)cc(Oc3c(C)cc(C)cc3C)n2)cc1 | < 4.29 | < 1 | 51 µM | < 4.29 | < 1 |  |  |  | 
7 | Cc1cn([C@H]2C[C@H](N=[N+]=[N-])[C@@H](CO)O2)c(=O)[nH]c1=O [ZIDOVUDINE] | 8.09 | > 1000 | > 7.48 µM |  | > 925 | 7.77 | > 448 |  | 
8 | Cc1cc(C#N)cc(C)c1Oc1cc(Nc2ccc(C#N)cc2)nc(Nc2ccc(C#N)cc2)n1 | < 4.89 | 117 | 13 µM | 6.96 | < 1 | 5.66 | 2 | 7.14 | 2
9 | Cc1ccc(Nc2nc(Nc3ccc(C#N)cc3)cc(Oc3c(C)cc(C#N)cc3C)n2)cc1 | < 5.07 | < 1 | 8.53 µM | < 5.07 | < 1 |  |  |  | 
10 | Cc1ccc(Nc2nc(Nc3ccc(C#N)cc3)cc(Oc3c(C)cc(C)cc3C)n2)cc1 | < 4.57 | < 1 | 27.1 µM | < 4.57 | < 1 |  |  |  | 
11 | CC(C)Nc1cccnc1N1CCN(C(=O)c2cc3cc(NS(C)(=O)=O)ccc3[nH]2)CC1 [DELAVIRDINE MESYLATE] |  | 1080 | 28.2 µM | 7.57 |  | < 4.55 | < 1 |  | 
12 | Cc1cc(C#N)cc(C)c1Oc1cc(Nc2ccc(C#N)cc2)nc(Nc2cccc(C#N)c2)n1 | < 5.56 | < 1 | 2.73 µM | < 5.56 | < 1 |  |  |  | 
